We go through 35 compounds from patent US20250313563A1, “GLYCOGEN SYNTHASE KINASE 3 INHIBITORS AND USES THEREOF” (The Broad Institute, Inc., priority 2022, published 2025).

pIC50: −log10 of the molar value. Where two headings read alike, the source gives them in different places. Some results are limits rather than exact numbers.

In assay [1] the target is GSK3α (GST-full length GSK3α) (Homo sapiens (Human), UniProt P49840). The assay is described as follows: GSK3α TR-FRET kinase assay. Format: biochemical. Summed up:
(§1)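 1 nM GST-GSK3α/β + cpd, 30 min preinc; add 200 nM biotin-pS645 GS(631-650) peptide + ATP (α 4 μM / β 2 μM, or 1 mM); 100 min RT, 50 mM Tris pH 7.5, 20 mM MgCl2, 1% DMSO; EDTA stop; SA-d2/Tb-pSer641 Ab 60 min; 665/615 ratio → IC50.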
On the technique in general: TR-FRET usually uses a lanthanide donor and a delayed reading to cut background.

In assay [2] the target is GSK3b (GST-full length GSK3b) (Homo sapiens (Human), UniProt P49841). The assay can be described thus: GSK3b TR-FRET kinase assay. The class given is biochemical. The method in brief: as §1
[3] abbreviates: 1 nM GSK3α, 4 μM ATP, 30 minute preincubation, geometric mean, read-out: GSK3-A TR-FRET BIOCHEMICAL (TR-FRET), GMean, IC50.
Setting [4] is: 1 nM GSK3b, 2 μM ATP, 30 minute preincubation, geometric mean, read-out: GSK3-B TR-FRET BIOCHEMICAL (TR-FRET), GMean, IC50.
[5] abbreviates: 1 nM GSK3α, 4 μM ATP, 30 minute preincubation, read-out: GSK3-A TR-FRET BIOCHEMICAL (TR-FRET), IC50.
Setting [6] is: GSK3-A (TR-FRET 1 mM ATP), GMean, IC50, 1 mM ATP, geometric mean.
[7] abbreviates: 1 nM GSK3b, 2 μM ATP, 30 minute preincubation, read-out: GSK3-B TR-FRET BIOCHEMICAL (TR-FRET), IC50.
Where [8] appears, read: GSK3-B (TR-FRET 1 mM ATP), GMean, IC50, 1 mM ATP, geometric mean.
[9] abbreviates: 1 nM GSK3α, 4 μM ATP, 30 minute preincubation, Table 16, read-out: GSK3-A TR-FRET BIOCHEMICAL (TR-FRET).
The mark [10] stands for this setting: 1 nM GSK3b, 2 μM ATP, 30 minute preincubation, Table 16, read-out: GSK3-B TR-FRET BIOCHEMICAL (TR-FRET).
Where [11] appears, read: read-out: GSK3-A (TR-FRET 1 mM ATP), GMean, IC50, 1 mM ATP, geometric mean.
Where [12] appears, read: read-out: GSK3-B (TR-FRET 1 mM ATP), GMean, IC50, 1 mM ATP, geometric mean.
[13] abbreviates: 1 nM GSK3α, 4 μM ATP, 30 minute preincubation, Table 16, read-out: GSK3-A TR-FRET BIOCHEMICAL (TR-FRET), IC50.
The mark [14] stands for this setting: 1 nM GSK3b, 2 μM ATP, 30 minute preincubation, Table 16, read-out: GSK3-B TR-FRET BIOCHEMICAL (TR-FRET), IC50.

GSK3α (GST-full length GSK3α), sequence (P49840 whole entry): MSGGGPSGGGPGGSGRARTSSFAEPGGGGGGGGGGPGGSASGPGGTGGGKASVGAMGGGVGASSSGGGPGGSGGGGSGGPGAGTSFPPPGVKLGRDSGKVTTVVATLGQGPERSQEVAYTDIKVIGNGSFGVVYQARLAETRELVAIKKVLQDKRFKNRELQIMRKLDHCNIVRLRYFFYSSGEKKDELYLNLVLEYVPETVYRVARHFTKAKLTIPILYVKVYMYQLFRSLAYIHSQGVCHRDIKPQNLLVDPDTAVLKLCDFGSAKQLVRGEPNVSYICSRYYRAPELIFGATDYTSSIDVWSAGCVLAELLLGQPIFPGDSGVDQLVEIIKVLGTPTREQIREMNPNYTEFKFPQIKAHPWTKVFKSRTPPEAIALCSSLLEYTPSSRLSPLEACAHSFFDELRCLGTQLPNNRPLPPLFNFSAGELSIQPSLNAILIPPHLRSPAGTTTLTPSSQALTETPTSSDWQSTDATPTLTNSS
GSK3b (GST-full length GSK3b), sequence (P49841 whole entry): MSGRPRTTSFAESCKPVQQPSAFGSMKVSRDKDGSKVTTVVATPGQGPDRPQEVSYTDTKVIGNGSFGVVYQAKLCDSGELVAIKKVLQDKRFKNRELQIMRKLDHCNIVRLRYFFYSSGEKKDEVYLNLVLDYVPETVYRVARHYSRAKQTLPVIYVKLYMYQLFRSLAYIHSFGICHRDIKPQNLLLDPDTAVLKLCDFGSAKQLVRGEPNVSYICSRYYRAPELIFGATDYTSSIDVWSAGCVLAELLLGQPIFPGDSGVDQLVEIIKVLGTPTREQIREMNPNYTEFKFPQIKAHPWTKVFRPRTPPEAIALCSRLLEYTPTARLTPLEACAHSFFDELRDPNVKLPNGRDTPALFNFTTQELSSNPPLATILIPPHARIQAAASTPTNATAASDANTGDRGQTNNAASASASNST

In the case of `CC1(C)CC(=O)C2=C(C1)Nc1n[nH]c(C3(C(F)(F)F)CC3)c1C21CCc2c(F)cccc21` (centres unmarked) [Compound 816840], the pIC50 is 5.30 to 6.00 in assay [1] (setting [3]) and 6.00 to 7.00 in assay [2] (setting [4]).

Take `CC1(C)CC(=O)C2=C(C1)Nc1n[nH]c(CC(F)(F)F)c1C21CCc2c(F)cccc21` (centres unmarked) [Compound 816837]: the values for the pIC50 in assay [1] (setting [3]) and in assay [2] (setting [4]) were 5.30 to 6.00 and 6.00 to 7.00, respectively.

In the case of `CC1(C)CC(=O)C2=C(C1)Nc1n[nH]cc1C21CCN(S(=O)(=O)CC2CC2)CC1` [Compound 909207], the pIC50 was not below 7.00 in assay [1] (setting [5]), not below 7.00 in assay [1] (setting [6]), not below 7.00 in assay [2] (setting [7]) and 6.00 to 7.00 in assay [2] (setting [8]).

As for `Cn1cc(S(=O)(=O)N2CC[C@]3(C2)C2=C(CC(C)(C)CC2=O)Nc2n[nH]cc23)cn1` [Compound 943483], the pIC50 in assay [1] (setting [9]) and in assay [2] (setting [10]) was not below 7.00 throughout.

Regarding `CC1(C)CC(=O)C2=C(C1)Nc1n[nH]cc1[C@]21CCCc2c(-c3ccncc3)cccc21` [Compound 945548], the pIC50 in assay [1] (setting [9]) and in assay [2] (setting [10]) was not below 7.00 each time.

Take `CC1(C)CC(=O)C2=C(C1)Nc1n[nH]cc1[C@@]21COC2(CN(C(=O)Cc3ccccc3)C2)C1` [Compound 948037]: the pIC50 in assay [1] (setting [5]), in assay [1] (setting [11]), in assay [2] (setting [7]) and in assay [2] (setting [12]) was not below 7.00 in each case.

Take `CCC1(c2cccc(C3CCCC3)c2)C2=C(CC(C)(C)CC2=O)Nc2n[nH]cc21` (centres unmarked) [Compound 949082]: the pIC50 in assay [1] (setting [13]) and in assay [2] (setting [14]) was not below 7.00 each time.

As to `CCC1(c2cccc(C(F)(F)F)c2)C2=C(CC3(CCNC3=O)CC2=O)Nc2n[nH]cc21` (centres unmarked) [Compound 950324], the pIC50 in assay [1] (setting [9]) is not below 7.00; in assay [2] (setting [10]), 6.00 to 7.00.

In the case of `CCC1(c2cccc(-c3ccncc3C)c2)C2=C(CC(C)(C)NC2=O)Nc2n[nH]c(C(F)(F)F)c21` (centres unmarked) [Compound 947814], the pIC50 in assay [1] (setting [3]), in assay [1] (setting [11]), in assay [2] (setting [4]) and in assay [2] (setting [12]) was not below 7.00 throughout.

Turning to `CC1(C)CC(=O)C2=C(C1)Nc1n[nH]cc1C21COC2(CN(C(=O)C3CCCC3)C2)C1` (centres unmarked) [Compound 943958], the pIC50 is 6.00 to 7.00 in assay [1] (setting [5]) and 5.30 to 6.00 in assay [2] (setting [7]).

With `CC[C@@]1(c2cccc(C(F)(F)F)c2)C2=C(C[C@]3(CCNC3=O)CC2=O)Nc2n[nH]cc21` [Compound 950332], the pIC50 in assay [1] (setting [9]) and in assay [2] (setting [10]) was less than 5.30 in each case.

For `CC[C@@]1(c2cccc(-c3ccnc4c3CCC4)c2)C2=C(CC(C)(C)CC2=O)Nc2n[nH]cc21` [Compound 945619], the pIC50 in assay [1] (setting [9]) is 5.30 to 6.00; in assay [2] (setting [10]) it was less than 5.30.

In the case of `CC1(C)CC(=O)C2=C(C1)Nc1n[nH]cc1[C@@]21CCN(S(=O)(=O)CC2CC2)C1` [Compound 951724], the pIC50 in assay [1] (setting [9]) and in assay [2] (setting [10]) was not below 7.00 in each case.

With `CC[C@]1(c2cc(-c3cnn(C)c3)ccc2F)C2=C(CC(C)(C)CC2=O)Nc2n[nH]cc21` [Compound 909223], the pIC50 in assay [1] (setting [13]) and in assay [2] (setting [14]) was less than 5.30 each time.

For the compound `CC[C@]1(c2cccc(-c3cnn(C)c3C)c2)C2=C(CC(C)(C)NC2=O)Nc2n[nH]c(C(F)(F)F)c21` [Compound 947807], the results for the pIC50 in assay [1] (setting [3]) and in assay [2] (setting [4]) were not below 7.00 and 6.00 to 7.00, respectively.

`CCC1(c2cccc(SC)c2)C2=C(CC(C)(C)CC2=O)Nc2n[nH]cc21` (centres unmarked) [Compound 810508]: the pIC50 in assay [1] (setting [3]) was not below 7.00; in assay [2] (setting [4]), 6.00 to 7.00.

`CCC1(c2cccc(-c3ccncc3)c2)C2=C(Nc3n[nH]cc31)C(F)C(C)(C)CC2=O` (centres unmarked) [Compound 959341]: the pIC50 is not below 7.00 in assay [1] (setting [9]), 5.30 to 6.00 in assay [1] (setting [11]), 6.00 to 7.00 in assay [2] (setting [10]) and less than 5.30 in assay [2] (setting [12]).

On to `Cc1cccc(S(=O)(=O)N2CC[C@]3(C2)C2=C(CC(C)(C)CC2=O)Nc2n[nH]cc23)c1` [Compound 951863], for which the pIC50 in assay [1] (setting [5]) was not below 7.00; in assay [1] (setting [6]) it was 6.00 to 7.00; in assay [2] (setting [7]) it was not below 7.00; in assay [2] (setting [8]), 6.00 to 7.00.

As to `CC(=O)N1CCC2(C1)C1=C(CC(C)(C)CC1=O)Nc1n[nH]cc12` (centres unmarked) [Compound 826763], the pIC50 in assay [1] (setting [13]) was 6.00 to 7.00; in assay [2] (setting [14]), 5.30 to 6.00.

As for `CCC1(c2cccc(N(C)c3ccncc3)c2)C2=C(CC(C)(C)CC2=O)Nc2n[nH]cc21` (centres unmarked) [Compound 874261], the pIC50 in assay [1] (setting [3]) was 6.00 to 7.00; in assay [2] (setting [4]) it was less than 5.30.

For the compound `CCC1(c2cccc(N3CCCC3)c2)C2=C(CC(C)(C)NC2=O)Nc2n[nH]c(C(F)(F)F)c21` (centres unmarked) [Compound 947860], the pIC50 in assay [1] (setting [3]) was not below 7.00; in assay [1] (setting [11]), not below 7.00; in assay [2] (setting [4]), not below 7.00; in assay [2] (setting [12]) it was 6.00 to 7.00.

In the case of `CC1(C)CC2=C(C(=O)N1)C1(CCN(S(=O)(=O)c3cnn(C(C)(C)C)c3)CC1)c1c[nH]nc1N2` [Compound 947835], the pIC50 is not below 7.00 in assay [1] (setting [3]), not below 7.00 in assay [1] (setting [5]), 6.00 to 7.00 in assay [2] (setting [4]) and 6.00 to 7.00 in assay [2] (setting [7]).

Turning to `CCC1(c2cccc(-c3ccnc(C)c3)c2)C2=C(CC(C)(C)CC2=O)Nc2n[nH]cc21` (centres unmarked) [Compound 865170], the pIC50 in assay [1] (setting [3]) is 5.30 to 6.00; in assay [2] (setting [4]), less than 5.30.

Turning to `CCC1(c2cccc(C(F)(F)F)c2)C2=C(CCN(c3cn[nH]c3)C2=O)Nc2n[nH]cc21` (centres unmarked) [Compound 950479], the pIC50 in assay [1] (setting [13]) was not below 7.00; in assay [2] (setting [14]) it was 6.00 to 7.00.

As for `CCC1(c2cccc(-c3cc(C)nn3C)c2)C2=C(CC(C)(C)CC2=O)Nc2n[nH]cc21` (centres unmarked) [Compound 946097], the pIC50 in assay [1] (setting [9]) is not below 7.00; in assay [2] (setting [10]), 6.00 to 7.00.

As to `CCC1(c2cccc(S(=O)(=O)C3CCCCC3)c2)C2=C(CC(C)(C)CC2=O)Nc2n[nH]cc21` (centres unmarked) [Compound 943541], the pIC50 in assay [1] (setting [9]) was not below 7.00; in assay [1] (setting [11]) it was 6.00 to 7.00; in assay [2] (setting [10]), not below 7.00; in assay [2] (setting [12]) it was 5.30 to 6.00.

Turning to `Cc1[nH]nc2c1C1(CCCC1)C1=C(CC(C)(C)CC1=O)N2` [Compound 786072], the pIC50 in assay [1] (setting [9]) and in assay [2] (setting [10]) was not below 7.00 each time.

For the compound `CCC1(c2cccc(-c3ccnc(N(C)C)c3)c2)C2=C(CC(C)(C)CC2=O)Nc2n[nH]c(C)c21` (centres unmarked) [Compound 883990], the pIC50 was not below 7.00 in assay [1] (setting [13]) and 6.00 to 7.00 in assay [2] (setting [14]).

As for `CCC1(c2cccc(-c3cnn(C)c3C(F)(F)F)c2)C2=C(CC(C)(C)NC2=O)Nc2n[nH]cc21` (centres unmarked) [Compound 948826], the results for the pIC50 in assay [1] (setting [3]) and in assay [2] (setting [4]) were 5.30 to 6.00 and less than 5.30, respectively.

As for `CC[C@]1(c2cccc(-c3ccncc3C)c2)C2=C(CC(C)(C)NC2=O)Nc2n[nH]cc21` [Compound 947574], the pIC50 in assay [1] (setting [3]) and in assay [2] (setting [4]) was not below 7.00 each time.

For the compound `CC1(C)CC(=O)C2=C(C1)Nc1n[nH]cc1[C@@]21CCOC(C)(C)C1` [Compound 924299], the pIC50 in assay [1] (setting [9]) and in assay [2] (setting [10]) was 6.00 to 7.00 in each case.

Turning to `CCC1(c2cccc(-c3ccnc(OC(F)(F)F)c3)c2)C2=C(CC(C)(C)CC2=O)Nc2n[nH]cc21` (centres unmarked) [Compound 943988], the pIC50 in assay [1] (setting [9]) is 6.00 to 7.00; in assay [2] (setting [10]), 5.30 to 6.00.

As to `CC1CC(C(=O)N2CC3(C2)CC2(CO3)C3=C(CC(C)(C)CC3=O)Nc3n[nH]cc32)C1` (centres unmarked) [Compound 947732], the pIC50 in assay [1] (setting [5]) was 6.00 to 7.00; in assay [2] (setting [7]), 5.30 to 6.00.

In the case of `Cn1nccc1S(=O)(=O)N1CC2(C1)C1=C(CC(C)(C)CC1=O)Nc1n[nH]cc12` [Compound 932648], the pIC50 in assay [1] (setting [9]) and in assay [2] (setting [10]) was not below 7.00 each time.

Take `O=C1CC(c2ccccc2)CC2=C1C1(CCOCC1)c1c[nH]nc1N2` (centres unmarked) [Compound 893309]: the pIC50 in assay [1] (setting [13]) is 6.00 to 7.00; in assay [2] (setting [14]), 5.30 to 6.00.
